In data set [1] the test system is HCV replicon in HUH-7 cells. The experiment in a line: HCV replicon FRET assay. It counts as cell-based, Hepatitis C virus (strain 1b). The following applies: Hepatitis C virus, Huh-7; HCV replicon, for compounds tested; read-out: EC50 Range. The text has this:
An HCV replicon whole cell system was established as described by Lohmann V, Komer F, Koch J, Herian U, Theilmann L, Bartenschlager R., Science 285(5424):110-3 (1999). This system enabled us to evaluate the effects of our HCV Protease compounds on HCV RNA replication. Briefly, using the HCV strain 1b sequence described in the Lohmann paper (Assession number: AJ238799), an HCV cDNA was synthesized by Operon Technologies, Inc. (Alameda, Calif.), and the full-length replicon was then assembled in plasmid pGem9zf(+) (Promega, Madison, Wis.) using standard molecular biology techniques. The replicon consists of (i) the HCV 5′ UTR fused to the first 12 amino acids of the capsid protein, (ii) the neomycin phosphotransferase gene (neo), (iii) the IRES from encephalomyocarditis virus (EMCV), and (iv) HCV NS3 to NS5B genes and the HCV 3′ UTR. Plasmid DNAs were linearized with Scal and RNA transcripts were synthesized in vitro using the T7 MegaScript transcription kit (Ambion, Austin, Tex.) according to manufacturer's directions. In vitro transcripts of the cDNA were transfected into the human hepatoma cell line, HUH-7. […] Resulting cell lines were characterized for positive and negative strand RNA production and protein production over time.
The HCV replicon FRET assay was developed to monitor the inhibitory effects of compounds described in the disclosure on HCV viral replication. HUH-7 cells, constitutively expressing the HCV replicon, were grown in Dulbecco's Modified Eagle Media (DMEM) (Gibco-BRL) containing 10% Fetal calf serum (FCS) (Sigma) and 1 mg/ml G418 (Gibco-BRL). Cells were seeded the night before (1.5×10^4 cells/well) in 96-well tissue-culture sterile plates. Compound and no compound controls were prepared in DMEM containing 4% FCS, 1:100 Penicillin/Streptomysin (Gibco-BRL), 1:100 L-glutamine and 5% DMSO in the dilution plate (0.5% DMSO final concentration in the assay). Compound/DMSO mixes were added to the cells and incubated for 4 days at 37° C. After 4 days, cells were first assessed for cytotoxicity using alamar Blue (Trek Diagnotstic Systems) for a CC50 reading. The toxicity of compound (CC50) was determined by adding 1/10th volume of alamar Blue to the media incubating the cells. After 4 hours, the fluorescence signal from each well was read, with an excitation wavelength at 530 nm and an emission wavelength of 580 nm, using the Cytofluor Series 4000 (Perspective Biosystems). Plates were then rinsed thoroughly with Phosphate-Buffered Saline (PBS) (3 times 150 μl). The cells were lysed with 25 μl of a lysis assay reagent containing an HCV protease substrate (5× cell Luciferase cell culture lysis reagent (Promega #E153A) diluted to 1× with distilled water, NaCl added to 150 mM final, the FRET peptide substrate (as described for the enzyme assay above) diluted to 10 μM final from a 2 mM stock in 100% DMSO. […]. The plate was then placed into the Cytofluor 4000 instrument which had been set to 340 nm excitation/490 nm emission, automatic mode for 21 cycles and the plate read in a kinetic mode. EC50 determinations were carried out as described for the IC50 determinations.

In data set [2] the target is T1, HCV NS3/4A protease complex, BMS strain (UniProt P27958, species not given/STRAIN_BMS).
T1 construct: said of H77 and J4L6S; fused on or other part: A three-lysine solubilising tail at the C-terminus of NS4A and a His tag (pET21b, Ni-NTA purification)
T1 sequence (P27958 1027-1657, change not shown, one chain of several): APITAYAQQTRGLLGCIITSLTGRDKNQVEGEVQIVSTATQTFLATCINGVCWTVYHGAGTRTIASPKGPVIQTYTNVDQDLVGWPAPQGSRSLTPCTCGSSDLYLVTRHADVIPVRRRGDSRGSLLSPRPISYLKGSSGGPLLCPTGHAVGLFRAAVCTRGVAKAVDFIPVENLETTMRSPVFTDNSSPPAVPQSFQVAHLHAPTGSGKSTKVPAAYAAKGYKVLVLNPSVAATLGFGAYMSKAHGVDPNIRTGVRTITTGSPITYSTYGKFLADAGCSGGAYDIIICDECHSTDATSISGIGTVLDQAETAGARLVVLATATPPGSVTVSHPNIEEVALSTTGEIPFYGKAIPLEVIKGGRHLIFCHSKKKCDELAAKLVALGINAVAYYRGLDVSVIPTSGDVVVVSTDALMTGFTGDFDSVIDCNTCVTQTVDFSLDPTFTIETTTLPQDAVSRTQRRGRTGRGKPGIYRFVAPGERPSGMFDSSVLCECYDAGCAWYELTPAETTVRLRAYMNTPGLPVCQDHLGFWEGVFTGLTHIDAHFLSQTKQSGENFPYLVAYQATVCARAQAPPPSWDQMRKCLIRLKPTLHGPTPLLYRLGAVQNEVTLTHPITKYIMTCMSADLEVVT
The experiment in a line: FRET peptide assay to monitor HCV NS3/4A proteolytic activity (BMS strain). The following applies: NS3/4A BMS strain; read-out: IC50 Range. It counts as biochemical, Hepatitis C virus (genotype 1a). The source says: HCV NS3 protease complexes, derived from the BMS strain, H77 strain or J4L6S strain, were generated, as described below. These purified recombinant proteins were generated for use in a homogeneous assay (see below) to provide an indication of how effective compounds of the present disclosure would be in inhibiting HCV NS3 proteolytic activity.
Serum from an HCV-infected patient was obtained from Dr. T. Wright, San Francisco Hospital. An engineered full-length cDNA (compliment deoxyribonucleic acid) template of the HCV genome (BMS strain) was constructed from DNA fragments obtained by reverse transcription-PCR (RT-PCR) of serum RNA (ribonucleic acid) and using primers selected on the basis of homology between other genotype 1a strains. From the determination of the entire genome sequence, a genotype 1a was assigned to the HCV isolate according to the classification of Simmonds et al. (See P Simmonds, K A Rose, S Graham, S W Chan, F McOmish, B C Dow, E A Follett, P L Yap and H Marsden, J. Clin. Microbiol., 31(6), 1493-1503 (1993)). […] The infectious clones, H77 (1a genotype) and J4L6S (1b genotype) were obtained from R. Purcell (NIH) and the sequences are published in Genbank (AAB67036, see Yanagi, M., Purcell, R. H., Emerson, S. U. and Bukh, J. Proc. Natl. Acad. Sci. U.S.A. 94(16), 8738-8743 (1997); AF054247, see Yanagi, M., St Claire, M., Shapiro, M., Emerson, S. U., Purcell, R. H. and Bukh, J, Virology 244 (1), 161-172. (1998)).
The H77 and J4L6S strains were used for production of recombinant NS3/4A protease complexes. DNA encoding the recombinant HCV NS3/4A protease complex (amino acids 1027 to 1711) for these strains were manipulated as described by P. Gallinari et al. (see Gallinari P, Paolini C, Brennan D, Nardi C, Steinkuhler C, De Francesco R. Biochemistry. 38(17):5620-32, (1999)). Briefly, a three-lysine solubilizing tail was added at the 3′-end of the NS4A coding region. The cysteine in the P1 position of the NS4A-NS4B cleavage site (amino acid 1711) was changed to a glycine to avoid the proteolytic cleavage of the lysine tag. Furthermore, a cysteine to serine mutation was introduced by PCR at amino acid position 1454 to prevent the autolytic cleavage in the NS3 helicase domain. The variant DNA fragment was cloned in the pET21b bacterial expression vector (Novagen) and the NS3/4A complex was expressed in Escherichia coli strain BL21 (DE3) (Invitrogen) following the protocol described by P. Gallinari et al. (see Gallinari P, Brennan D, Nardi C, Brunetti M, Tomei L, Steinkuhler C, De Francesco R., J Virol. 72(8):6758-69 (1998)) with modifications. Briefly, the NS3/4A protease complex expression was induced with 0.5 mM Isopropyl β-D-1-thiogalactopyranoside (IPTG) for 22 hours (h) at 20° C. A typical fermentation (1 Liter (L)) yielded approximately 10 grams (g) of wet cell paste. The cells were resuspended in lysis buffer (10 mL/g) consisting of 25 mM N-(2-Hydroxyethyl)Piperazine-N′-(2-Ethane Sulfonic acid) (HEPES), pH 7.5, 20% glycerol, 500 mM Sodium Chloride (NaCl), 0.5% Triton X-100, 1 microgram/milliliter (“μg/mL”) lysozyme, 5 mM Magnesium Chloride (MgCl2), 1 μg/ml Dnasel, 5 mM β-Mercaptoethanol (βME), Protease inhibitor-Ethylenediamine Tetraacetic acid (EDTA) free (Roche), homogenized and incubated for 20 minutes (min) at 4° C. The homogenate was sonicated and clarified by ultra-centrifugation at 235000 g for 1 h at 4° C. Imidazole was added to the supernatant to a final concentration of 15 mM and the pH adjusted to 8.0. The crude protein extract was loaded on a Nickel-Nitrilotriacetic acid (Ni-NTA) column pre-equilibrated with buffer B (25 mM HEPES, pH 8.0, 20% glycerol, 500 mM NaCl, 0.5% Triton X-100, 15 mM imidazole, 5 mM βME). The sample was loaded at a flow rate of 1 mL/min. The column was washed with 15 column volumes of buffer C (same as buffer B except with 0.2% Triton X-100). The protein was eluted with 5 column volumes of buffer D (same as buffer C except with 200 mM Imidazole). […]

In general, EC50 refers to the midpoint of the concentration-response curve. Broadly, the IC50 is the concentration needed to halve the response being measured. By melting point is commonly meant the temperature, or range, at which the solid turns liquid.

Bounds are passed on as bounds.

Consider `CC(C)(C)OC(=O)N[C@H]1CCCOC/C=C\[C@@H]2C[C@@]2(C(=O)NS(=O)(=O)C2CC2)NC(=O)[C@@H]2C[C@@H](OC(=O)c3ccccc3)CN2C1=O` [Compound 1, 18-benzoyloxy-14-tert-butoxycarbonylamino-4-cyclopropylsulfonylaminocarbonyl-2,15-dioxo-3,16-diaza-10-oxatricyclo[14.3.0.0^4,6]nonadec-7-ene], for which the melting point lay in the range of 153 to 155 °C. The 50% effective concentration (EC50) in data set [1] fell in the range of 100 to 1000 nM. In addition, in data set [2], the IC50 was less than 100 nM.

Regarding `CCCC(C)C(=O)O[C@@H]1C[C@H]2C(=O)N[C@]3(C(=O)NS(=O)(=O)C4CC4)C[C@H]3/C=C\COCCC[C@H](NC(=O)OC(C)(C)C)C(=O)N2C1` (stereo partly drawn) [Compound 2, 18-(2-methylvaleryloxy)-14-tert-butoxycarbonylamino-4-cyclopropylsulfonylaminocarbonyl-2,15-dioxo-3,16-diaza-10-oxatricyclo-[14.3.0.0^4,6]-nonadec-7-ene], the melting point lay in the range of 121 to 123 °C. In addition, the EC50 in data set [1] is greater than 1000 nM. The IC50 in data set [2] is less than 100 nM.

The compound `CC(C)(C)OC(=O)N[C@H]1CCCOC/C=C\[C@@H]2C[C@@]2(C(=O)NS(=O)(=O)C2CC2)NC(=O)[C@@H]2C[C@@H](OC(=O)C3CCCCC3)CN2C1=O` [Compound 3, 18-cyclohexanecarbonyloxy-14-tert-butoxycarbonylamino-4-cyclopropylsulfonylaminocarbonyl-2,15-dioxo-3,16-diaza-10-oxatricyclo-[14.3.0.0^4,6]-nonadec-7-ene] had a melting point of 128 to 130 °C. For the same compound, the EC50 in data set [1] was greater than 1000 nM. For the same compound, the IC50 in data set [2] was less than 100 nM.

On to `CC(C)(C)OC(=O)N[C@H]1CCCOC/C=C\[C@@H]2C[C@@]2(C(=O)NS(=O)(=O)C2CC2)NC(=O)[C@@H]2C[C@@H](OC(=O)C(C)(C)C)CN2C1=O` [Compound 4, 18-pivaloyloxy-14-tert-butoxycarbonylamino-4-cyclopropylsulfonylaminocarbonyl-2,15-dioxo-3,16-diaza-10-oxatricyclo-[14.3.0.0^4,6]-nonadec-7-ene], for which the melting point lay within 143 to 145 °C. In data set [1], the EC50 is greater than 1000 nM. Moreover, in data set [2], the IC50 was less than 100 nM.

`CC(C)(C)OC(=O)N[C@H]1CCCOC/C=C\[C@@H]2C[C@@]2(C(=O)NS(=O)(=O)C2CC2)NC(=O)[C@@H]2C[C@@H](OC(=O)CC3CCCCC3)CN2C1=O` [Compound 6, 18-cyclohexaneacetyloxy-14-tert-butoxycarbonylamino-4-cyclopropylsulfonylaminocarbonyl-2,15-dioxo-3,16-diaza-10-oxatricyclo-[14.3.0.0^4,6]-nonadec-7-ene]: the melting point was in the range of 107 to 109 °C. The EC50 in data set [1] was greater than 1000 nM. Further, the IC50 in data set [2] was less than 100 nM.

The compound `COc1ccccc1C(=O)O[C@@H]1C[C@H]2C(=O)N[C@]3(C(=O)NS(=O)(=O)C4CC4)C[C@H]3/C=C\COCCC[C@H](NC(=O)OC(C)(C)C)C(=O)N2C1` [Compound 7, 18-(2-methoxybenzoyloxy)-14-tert-butoxycarbonylamino-4-cyclopropylsulfonylaminocarbonyl-2,15-dioxo-3,16-diaza-10-oxa-tricyclo-[14.3.0.0^4,6]-nonadec-7-ene] yielded a melting point of 144 to 146 °C. Besides, the EC50 in data set [1] is greater than 1000 nM. Also, the IC50 in data set [2] was less than 100 nM.

The compound `COc1ccc(C(=O)O[C@@H]2C[C@H]3C(=O)N[C@]4(C(=O)NS(=O)(=O)C5CC5)C[C@H]4/C=C\COCCC[C@H](NC(=O)OC(C)(C)C)C(=O)N3C2)c(OC)c1` [Compound 8, 18-(2,4-dimethoxybenzoyloxy)-14-tert-butoxycarbonylamino-4-cyclopropylsulfonylaminocarbonyl-2,15-dioxo-3,16-diaza-10-oxatricyclo-[14.3.0.0^4,6]-nonadec-7-ene] yielded a melting point of 122 to 124 °C. Further, in data set [1], the EC50 lay in the range of 100 to 1000 nM. Besides, the IC50 in data set [2] is less than 100 nM.

`COc1cccc(C(=O)O[C@@H]2C[C@H]3C(=O)N[C@]4(C(=O)NS(=O)(=O)C5CC5)C[C@H]4/C=C\COCCC[C@H](NC(=O)OC(C)(C)C)C(=O)N3C2)c1` [Compound 9, 18-(3-methoxybenzoyloxy)-14-tert-butoxycarbonylamino-4-cyclopropylsulfonylaminocarbonyl-2,15-dioxo-3,16-diaza-10-oxatricyclo-[14.3.0.0^4,6]-nonadec-7-ene] gave a melting point of 149 to 151 °C. Further, the EC50 in data set [1] lay within 100 to 1000 nM. In addition, the IC50 in data set [2] was less than 100 nM.

For the origin of these results see patent publication US7772183B2 (Bristol-Myers Squibb Company, priority 2005, dated 2010).
